In patent US20240246942A1, “KINASE INHIBITORS FOR THE TREATMENT OF NEURODEGENERATIVE DISEASES” (priority 2020, published 2024):
Like-named read-outs stand apart in the source and are kept apart here.

Experiments:
Assay in all cases: biochemical
[1] = target: T1, panel of 374 wild-type kinases (Homo sapiens, UniProt P24941)
T1 construct: purchased Reaction Biology Corporation

[2] = target: T2, panel of 374 wild-type kinases (Homo sapiens, UniProt P12931); conditions: read-out: % Enzyme Activity (relative to DMSO controls), c-Src
T2 construct: purchased Reaction Biology Corporation

[3] = target: T3, panel of 374 wild-type kinases (Homo sapiens, UniProt P36897); conditions: read-out: % Enzyme Activity (relative to DMSO controls), ALK5/TGFBR1
T3 construct: purchased Reaction Biology Corporation
T3 sequence (P36897 34-503): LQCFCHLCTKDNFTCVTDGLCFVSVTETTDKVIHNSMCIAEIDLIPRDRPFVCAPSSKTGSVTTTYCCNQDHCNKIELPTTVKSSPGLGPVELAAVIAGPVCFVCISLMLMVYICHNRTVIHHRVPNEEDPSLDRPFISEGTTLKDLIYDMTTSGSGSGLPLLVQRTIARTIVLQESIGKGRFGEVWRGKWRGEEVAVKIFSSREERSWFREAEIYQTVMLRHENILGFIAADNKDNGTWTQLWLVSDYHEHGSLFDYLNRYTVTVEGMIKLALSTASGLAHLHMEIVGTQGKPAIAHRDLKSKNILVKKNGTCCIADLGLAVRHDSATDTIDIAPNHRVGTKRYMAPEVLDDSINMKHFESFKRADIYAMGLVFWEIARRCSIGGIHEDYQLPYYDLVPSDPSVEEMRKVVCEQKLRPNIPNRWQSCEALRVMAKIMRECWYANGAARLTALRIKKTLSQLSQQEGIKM

[4] = target: T4, panel of 374 wild-type kinases (Homo sapiens, UniProt Q05397); conditions: read-out: % Enzyme Activity (relative to DMSO controls), FAK/PTK2
T4 construct: purchased Reaction Biology Corporation

[5] = target: T5, panel of 374 wild-type kinases (Homo sapiens, UniProt Q9UEE5); conditions: read-out: % Enzyme Activity (relative to DMSO controls), DRAK1/STK17A
T5 construct: purchased Reaction Biology Corporation
T5 sequence (Q9UEE5 1-414): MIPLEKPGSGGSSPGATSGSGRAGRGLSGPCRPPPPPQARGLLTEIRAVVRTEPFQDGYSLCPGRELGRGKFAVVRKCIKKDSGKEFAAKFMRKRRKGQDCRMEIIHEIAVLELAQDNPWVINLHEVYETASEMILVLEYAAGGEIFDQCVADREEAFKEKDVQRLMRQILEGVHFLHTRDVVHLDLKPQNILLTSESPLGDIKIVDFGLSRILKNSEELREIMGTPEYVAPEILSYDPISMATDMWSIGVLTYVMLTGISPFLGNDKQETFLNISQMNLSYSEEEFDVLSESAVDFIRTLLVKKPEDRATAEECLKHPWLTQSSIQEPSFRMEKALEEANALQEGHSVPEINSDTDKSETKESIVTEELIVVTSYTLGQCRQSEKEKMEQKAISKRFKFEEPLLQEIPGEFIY

[6] = target: T6, panel of 374 wild-type kinases (Homo sapiens, UniProt Q13470); conditions: read-out: % Enzyme Activity (relative to DMSO controls), kinase TNK1
T6 construct: purchased Reaction Biology Corporation
T6 sequence (Q13470 1-666): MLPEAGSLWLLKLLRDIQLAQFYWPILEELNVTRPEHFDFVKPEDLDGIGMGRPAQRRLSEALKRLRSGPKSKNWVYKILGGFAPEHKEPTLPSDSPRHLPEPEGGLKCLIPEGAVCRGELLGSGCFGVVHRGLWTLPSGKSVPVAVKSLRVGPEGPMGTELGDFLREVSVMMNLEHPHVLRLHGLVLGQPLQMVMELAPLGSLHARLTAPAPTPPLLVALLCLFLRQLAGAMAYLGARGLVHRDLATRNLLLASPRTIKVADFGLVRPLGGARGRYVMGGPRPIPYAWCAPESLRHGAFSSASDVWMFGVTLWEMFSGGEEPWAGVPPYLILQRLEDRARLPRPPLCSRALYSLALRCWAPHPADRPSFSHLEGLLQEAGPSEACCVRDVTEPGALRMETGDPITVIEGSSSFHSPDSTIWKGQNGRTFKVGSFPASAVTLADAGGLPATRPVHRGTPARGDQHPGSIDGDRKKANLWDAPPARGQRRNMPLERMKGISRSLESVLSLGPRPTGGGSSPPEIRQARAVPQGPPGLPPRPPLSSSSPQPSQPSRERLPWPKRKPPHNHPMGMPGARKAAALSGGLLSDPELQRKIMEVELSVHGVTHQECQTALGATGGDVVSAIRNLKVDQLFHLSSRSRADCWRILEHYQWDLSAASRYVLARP

[7] = target: T7, panel of 374 wild-type kinases (Homo sapiens, UniProt Q9UQM7); conditions: read-out: % Enzyme Activity (relative to DMSO controls), CAMK2a
T7 construct: purchased Reaction Biology Corporation

[8] = target: T8, panel of 374 wild-type kinases (Homo sapiens, UniProt P24723); conditions: read-out: % Enzyme Activity (relative to DMSO controls), kinase PKCeta
T8 construct: purchased Reaction Biology Corporation

[9] = target: T9, panel of 374 wild-type kinases (Homo sapiens, UniProt P49761); conditions: read-out: % Enzyme Activity (relative to DMSO controls), CLK3
T9 construct: purchased Reaction Biology Corporation

[10] = read-out: % Enzyme Activity (relative to DMSO controls), CDK2/Cyclin A1
[11] = read-out: % Enzyme Activity (relative to DMSO controls), CDK2/cyclin A
[12] = read-out: % Enzyme Activity (relative to DMSO controls), CDK2/cyclin E2
[13] = read-out: % Enzyme Activity (relative to DMSO controls), CDK2/cyclin E
[14] = read-out: % Enzyme Activity (relative to DMSO controls), CDK2/cyclin O

T8 sequence (P24723 whole entry): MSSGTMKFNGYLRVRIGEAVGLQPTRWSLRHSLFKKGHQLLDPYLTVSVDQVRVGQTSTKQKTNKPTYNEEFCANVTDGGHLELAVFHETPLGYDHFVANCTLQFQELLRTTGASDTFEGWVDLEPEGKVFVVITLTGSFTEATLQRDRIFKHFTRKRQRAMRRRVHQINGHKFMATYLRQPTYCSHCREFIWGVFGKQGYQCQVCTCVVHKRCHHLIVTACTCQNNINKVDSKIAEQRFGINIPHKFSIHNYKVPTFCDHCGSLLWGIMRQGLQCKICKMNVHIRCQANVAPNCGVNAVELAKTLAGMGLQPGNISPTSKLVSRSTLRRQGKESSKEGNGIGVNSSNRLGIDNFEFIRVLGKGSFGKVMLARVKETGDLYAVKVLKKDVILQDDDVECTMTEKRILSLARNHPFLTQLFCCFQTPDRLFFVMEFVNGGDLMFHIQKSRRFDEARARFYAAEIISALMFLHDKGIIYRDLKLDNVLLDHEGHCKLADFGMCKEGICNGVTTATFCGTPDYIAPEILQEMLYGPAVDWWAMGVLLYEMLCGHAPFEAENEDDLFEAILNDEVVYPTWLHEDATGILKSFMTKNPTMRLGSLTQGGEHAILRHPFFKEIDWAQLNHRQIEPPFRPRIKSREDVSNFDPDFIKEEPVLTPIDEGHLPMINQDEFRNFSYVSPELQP
T7 sequence (Q9UQM7 whole entry): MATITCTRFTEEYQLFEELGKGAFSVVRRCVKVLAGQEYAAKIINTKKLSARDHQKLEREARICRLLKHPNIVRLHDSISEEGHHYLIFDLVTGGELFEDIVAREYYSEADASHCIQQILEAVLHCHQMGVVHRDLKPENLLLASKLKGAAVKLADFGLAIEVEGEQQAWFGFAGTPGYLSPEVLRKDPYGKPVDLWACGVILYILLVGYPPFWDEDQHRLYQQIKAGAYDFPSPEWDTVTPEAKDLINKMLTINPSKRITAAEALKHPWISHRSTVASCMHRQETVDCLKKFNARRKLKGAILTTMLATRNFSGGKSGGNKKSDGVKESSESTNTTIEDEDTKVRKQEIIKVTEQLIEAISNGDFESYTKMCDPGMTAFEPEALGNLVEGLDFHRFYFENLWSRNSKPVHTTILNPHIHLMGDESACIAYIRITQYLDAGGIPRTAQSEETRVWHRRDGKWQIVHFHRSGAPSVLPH
T2 sequence (P12931 whole entry): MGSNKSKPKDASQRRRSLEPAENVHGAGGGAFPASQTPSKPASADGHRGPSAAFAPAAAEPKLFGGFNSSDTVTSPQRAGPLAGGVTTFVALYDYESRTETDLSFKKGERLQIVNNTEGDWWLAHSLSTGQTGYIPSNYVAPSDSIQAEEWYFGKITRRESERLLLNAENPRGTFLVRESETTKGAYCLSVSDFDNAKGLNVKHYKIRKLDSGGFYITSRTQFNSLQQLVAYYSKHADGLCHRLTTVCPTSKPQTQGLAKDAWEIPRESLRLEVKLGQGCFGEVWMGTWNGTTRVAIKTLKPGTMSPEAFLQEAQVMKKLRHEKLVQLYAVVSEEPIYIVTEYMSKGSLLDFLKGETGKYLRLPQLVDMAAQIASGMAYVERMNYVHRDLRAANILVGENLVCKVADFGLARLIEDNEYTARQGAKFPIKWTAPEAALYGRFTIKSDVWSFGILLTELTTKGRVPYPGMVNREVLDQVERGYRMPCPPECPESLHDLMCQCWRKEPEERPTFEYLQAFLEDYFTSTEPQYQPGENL
T4 sequence (Q05397 whole entry): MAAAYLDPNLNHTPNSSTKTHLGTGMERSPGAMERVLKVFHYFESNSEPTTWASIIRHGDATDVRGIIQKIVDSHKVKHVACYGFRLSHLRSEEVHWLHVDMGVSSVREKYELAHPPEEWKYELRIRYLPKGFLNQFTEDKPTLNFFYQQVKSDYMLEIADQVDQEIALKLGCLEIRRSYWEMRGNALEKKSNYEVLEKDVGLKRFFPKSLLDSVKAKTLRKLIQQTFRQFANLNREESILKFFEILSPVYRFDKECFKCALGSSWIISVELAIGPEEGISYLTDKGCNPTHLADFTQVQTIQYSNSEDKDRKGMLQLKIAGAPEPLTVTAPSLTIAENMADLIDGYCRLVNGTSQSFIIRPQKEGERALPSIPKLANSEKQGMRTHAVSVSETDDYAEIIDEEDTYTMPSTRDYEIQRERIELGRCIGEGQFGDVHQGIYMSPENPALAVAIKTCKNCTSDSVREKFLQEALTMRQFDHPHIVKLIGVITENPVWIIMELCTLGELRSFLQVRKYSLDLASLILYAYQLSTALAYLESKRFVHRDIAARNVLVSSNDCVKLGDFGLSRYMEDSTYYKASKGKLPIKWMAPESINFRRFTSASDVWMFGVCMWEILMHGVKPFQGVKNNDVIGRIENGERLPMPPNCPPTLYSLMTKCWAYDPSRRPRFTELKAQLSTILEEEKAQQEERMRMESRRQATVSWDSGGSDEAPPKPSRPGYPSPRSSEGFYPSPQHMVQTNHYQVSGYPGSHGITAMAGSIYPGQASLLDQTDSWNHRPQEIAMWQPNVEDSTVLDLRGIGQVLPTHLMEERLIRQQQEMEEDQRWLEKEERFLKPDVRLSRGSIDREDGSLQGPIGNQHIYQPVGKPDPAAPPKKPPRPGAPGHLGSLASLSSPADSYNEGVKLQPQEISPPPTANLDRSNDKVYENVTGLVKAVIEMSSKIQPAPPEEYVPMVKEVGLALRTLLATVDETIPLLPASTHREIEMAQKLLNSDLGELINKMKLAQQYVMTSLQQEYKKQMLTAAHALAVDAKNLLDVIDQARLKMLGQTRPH
T9 sequence (P49761 whole entry): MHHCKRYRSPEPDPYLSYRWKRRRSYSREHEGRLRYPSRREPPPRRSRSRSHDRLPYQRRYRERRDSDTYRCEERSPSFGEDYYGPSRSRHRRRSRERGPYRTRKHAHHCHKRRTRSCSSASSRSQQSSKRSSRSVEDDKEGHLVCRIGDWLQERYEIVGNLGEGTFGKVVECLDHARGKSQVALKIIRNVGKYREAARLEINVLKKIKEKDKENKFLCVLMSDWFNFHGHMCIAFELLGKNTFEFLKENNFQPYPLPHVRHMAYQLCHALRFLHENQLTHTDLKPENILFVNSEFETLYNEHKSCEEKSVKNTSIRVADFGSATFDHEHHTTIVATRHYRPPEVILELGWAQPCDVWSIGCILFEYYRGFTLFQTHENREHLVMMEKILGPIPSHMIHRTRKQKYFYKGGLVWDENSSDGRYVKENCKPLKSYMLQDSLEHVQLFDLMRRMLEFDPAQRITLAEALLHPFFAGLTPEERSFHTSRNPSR

Compound: O=C(Nc1cnn(-c2csc(C(=O)NC3COC3)c2)c1)Nc1c(F)cccc1Cl [Compound 25, 4-(4-(3-(2-chloro-6-fluorophenyl)ureido)-1H-pyrazol-1-yl)-N-(oxetan-3-yl)thiophene-2-carboxamide]
- remaining activity at 5 µM [1, 10]: 94.2%
- remaining activity at 5 µM [1, 11]: 93.8%
- remaining activity at 5 µM [1, 12]: 98.9%
- remaining activity at 5 µM [1, 13]: 94.6%
- remaining activity at 5 µM [1, 14]: 94.1%
- remaining activity at 5 µM [2]: 98.4%
- remaining activity at 5 µM [3]: 97.4%
- remaining activity at 5 µM [4]: 89%
- remaining activity at 5 µM [5]: 89.4%
- remaining activity at 5 µM [6]: 91.5%
- remaining activity at 5 µM [7]: 99.4%
- remaining activity at 5 µM [8]: 99%
- remaining activity at 5 µM [9]: 93.5%

Compound: O=C(Nc1cnn(-c2csc(C(=O)NC3COC3)c2)c1)Nc1ccccc1Cl [Compound 17, 4-(4-(3-(2-chlorophenyl)ureido)-1H-pyrazol-1-yl)-N-(oxetan-3-yl)thiophene-2-carboxamide]
- remaining activity at 5 µM [1, 10]: 106%
- remaining activity at 5 µM [1, 11]: 93.6%
- remaining activity at 5 µM [1, 12]: 107%
- remaining activity at 5 µM [1, 13]: 99%
- remaining activity at 5 µM [1, 14]: 93.2%
- remaining activity at 5 µM [2]: 91.1%
- remaining activity at 5 µM [3]: 103%
- remaining activity at 5 µM [4]: 95.7%
- remaining activity at 5 µM [5]: 98.4%
- remaining activity at 5 µM [6]: 100%
- remaining activity at 5 µM [7]: 100%
- remaining activity at 5 µM [8]: 103%
- remaining activity at 5 µM [9]: 120%

Compound: Cc1sc(C(=O)NC2COC2)cc1-n1cc(NC(=O)Nc2c(F)cccc2Cl)cn1 [Compound 27, 4-(4-(3-(2-chloro-6-fluorophenyl)ureido)-1H-pyrazol-1-yl)-5-methyl-N-(oxetan-3-yl)thiophene-2-carboxamide]
- remaining activity at 10 µM [1, 10]: 111%
- remaining activity at 10 µM [1, 11]: 98.3%
- remaining activity at 10 µM [1, 12]: 90.8%
- remaining activity at 10 µM [1, 13]: 106%
- remaining activity at 10 µM [1, 14]: 105%
- remaining activity at 10 µM ([2]; 10 uM): 96.6%
- remaining activity at 10 µM ([3]; 10 uM): 104%
- remaining activity at 10 µM ([4]; 10 uM): 104%
- remaining activity at 10 µM ([5]; 10 uM): 111%
- remaining activity at 10 µM ([6]; 10 uM): 105%
- remaining activity at 10 µM ([7]; 10 uM): 99.7%
- remaining activity at 10 µM ([8]; 10 uM): 91.6%
- remaining activity at 10 µM ([9]; 10 uM): 99.6%
